Laboratory results reported in patent US10730826B2, “Ketone inhibitors of lysine gingipain” (CORTEXYME, INC., priority 2016, dated 2020).
Read-outs that look alike come from different tables or passages of the source.

Experiments:
Cathepsin S = Cathepsin S (Homo sapiens (Human), UniProt P25774); assay: Cathepsin S inhibition assay; format: biochemical; conditions: for IC50: read-out: IC50 (nM) CatS
Procedure: (§1) The capacities of compounds of the present invention to inhibit the activity of cathepsins B, H, K, L, and S were measured in similar assays. Boc-Leu-Arg-Arg-AMC (20 μM) in sodium acetate buffer (50 mM, pH 5.5) containing DTT (1 mM) and EDTA (2 mM) was used for the Cathepsin B assay. L-Arg-AMC (20 μM) in sodium acetate buffer (50 mM, pH 5.5) containing DTT (1 mM) and EDTA (2 mM) was used for the Cathepsin H assay. Z-Phe-Arg-AMC (10 μM) in HEPES buffer (50 mM, pH 7.4) containing DTT (2.5 mM) and EDTA (1 mM) was used for the Cathepsin K assay. Z-Phe-Arg-AMC (20 μM) in sodium acetate buffer (50 mM, pH 5.5) containing DTT (1 mM) and EDTA (2 mM) was used for the Cathepsin L assay. Z-Leu-Arg-AMC (10 μM) in sodium acetate buffer (25 mM, pH 4.5) containing DTT (2.5 mM) and NaCl (50 mM) was used for the Cathepsin S assay. The capacities of the compounds to inhibit the activity of cathepsins F, V, and Z were also measured.
(§2) Further assays to measure the inhibitory activity of compounds of the present invention against Kgp and cathepsins B, H, K, L, and S were conducted as described in Example 66. The capacities of the compounds to inhibit the activity of cathepsins F, V, and Z were also measured.

Cathepsin K = Cathepsin K (Homo sapiens (Human), UniProt P43235); assay: Cathepsin K inhibition assay; format: biochemical; conditions: for IC50: read-out: IC50 (nM) CatK
Procedure: as §1, §2

Cathepsin H = Cathepsin H (Homo sapiens (Human), UniProt P09668); assay: Cathepsin H inhibition assay; format: biochemical
Procedure: as §1, §2

Cathepsin B = Cathepsin B (Homo sapiens (Human), UniProt P07858); assay: Cathepsin B inhibition assay; format: biochemical; conditions: for IC50: read-out: IC50 (nM) CatB
Procedure: as §1, §2

Cathepsin L = Cathepsin L (Homo sapiens (Human), UniProt P07711); assay: Cathepsin L inhibition assay; format: biochemical; conditions: for IC50: read-out: IC50 (nM) CatL
Procedure: as §1, §2

lysine gingipain (Kgp) [1] = assay: biochemical; format: biochemical, Porphyromonas gingivalis; conditions: as compared to reference compound 73
Procedure: (§3) The specific assay conditions were as follows. Buffer: pH=7.5, 100 mM Tris-HCl, 75 mM NaCl, 2.5 mM CaCl2), 10 mM cysteine, 1% DMSO after all additions. Protein: 0.1 nM Kgp, isolated from culture of Porphyromonas gingivalis, as described by Pike et al. (J. Biol. Chem. 1994, 269(1), 406), and Potempa and Nguyen (Current Protocols in Protein Science. 2007, 21.20.1-21.20.27). Fluorogenic substrate: 10 μM Z-His-Glu-Lys-MCA. Time=90 minutes. Temperature=37° C.
as §2

lysine gingipain (Kgp) [2] = target: lysine gingipain (Kgp) (Porphyromonas gingivalis (Bacteroides gingivalis), UniProt P72194); assay: biochemical; format: biochemical; conditions: IC50 (nM) Kgp
Procedure: as §3, §2

Compound NCCCC[C@H](NC(=O)C1CCCC1)C(=O)COc1c(F)ccc(F)c1F (racemic) [1a - non-racemic] has an IC50 (Cathepsin S; Table 3) of 29500 nM, an IC50 (Cathepsin K; Table 3) of 170 nM and an IC50 (Cathepsin H; Table 3, read-out: IC50 (nM) CatH) of 560 nM. For the same compound, the IC50 (Cathepsin B; Table 3) was 380 nM and the IC50 (Cathepsin L; Table 3) was 4680 nM.

For NCCCC[C@H](NC(=O)C1CCCC1)C(=O)COc1c(F)cccc1F [Compound 2, (S)—N-(7-amino-1-(2,6-difluorophenoxy)-2-oxoheptan-3-yl)cyclopentanecarboxamide], the “selectivity for Kgp over endogenous cathepsins” value (“selectivity for Kgp” below) (lysine gingipain (Kgp) [1]) was “increased selectivity”, the “CatS IC50 relative to reference compound 73” value (Cathepsin S; ratio to IC50 of compound 73) was “more than ten times higher” and the “CatK IC50 relative to reference compound 73” value (Cathepsin K; ratio to IC50 of compound 73) was “more than 100 times”. For the same compound, the “CatH IC50 relative to reference compound 73” value (Cathepsin H; ratio to IC50 of compound 73) was “more than ten times higher”, the “CatB IC50 relative to reference compound 73” value (Cathepsin B; ratio to IC50 of compound 73) was “more than 20 times” and the “CatL IC50 relative to reference compound 73” value (Cathepsin L; ratio to IC50 of compound 73) was “more than 100 times”.

With NCCCCC(NC(=O)C1CCCC1)C(=O)COc1ccccc1F (stereo not shown) [Compound 3a] the IC50 (lysine gingipain (Kgp) [2]; Table 3) was 0.64 nM, the IC50 (Cathepsin S; Table 3) was over 100000 nM and the IC50 (Cathepsin K; Table 3) was over 100000 nM. The IC50 (Cathepsin B; Table 3) was 52200 nM and the IC50 (Cathepsin L; Table 3) was over 100000 nM.

Work on NCCCCC(NC(=O)C1CCCC1)C(=O)COc1cc(F)cc(F)c1F (stereo not shown) [Compound 4a] yielded an IC50 (lysine gingipain (Kgp) [2]; Table 3) of 0.07 nM, an IC50 (Cathepsin S; Table 3) of over 100000 nM and an IC50 (Cathepsin K; Table 3) of over 100000 nM. It also gave an IC50 (Cathepsin B; Table 3) of 2640 nM and an IC50 (Cathepsin L; Table 3) of over 100000 nM.

NCCCCC(NC(=O)C1CCCC1)C(=O)COc1cccc(F)c1F (stereo not shown) [Compound 5a] gave an IC50 (lysine gingipain (Kgp) [2]; Table 3) of 0.15 nM, an IC50 (Cathepsin S; Table 3) of over 100000 nM and an IC50 (Cathepsin K; Table 3) of over 100000 nM. The IC50 (Cathepsin B; Table 3) was 21500 nM and the IC50 (Cathepsin L; Table 3) was over 100000 nM.

In the case of NCCCCC(NC(=O)C1CCCC1)C(=O)COc1cc(F)ccc1F (stereo not shown) [Compound 6a], the IC50 (lysine gingipain (Kgp) [2]; Table 3) was 0.19 nM, the IC50 (Cathepsin S; Table 3) was 42800 nM and the IC50 (Cathepsin K; Table 3) was over 100000 nM. It also gave an IC50 (Cathepsin B; Table 3) of 20300 nM and an IC50 (Cathepsin L; Table 3) of over 100000 nM.

In the case of NCCCC[C@H](NC(=O)C1CCCC1)C(=O)COc1cccc(F)c1 [Compound 7, (S)—N-(7-amino-1-(3-fluorophenoxy)-2-oxoheptan-3-yl)cyclopentanecarboxamide], the “selectivity for Kgp” value (lysine gingipain (Kgp) [1]) was “increased selectivity”.

NCCCCC(NC(=O)C1CCCC1)C(=O)COc1cccc(F)c1 (stereo not shown) [Compound 7a] was tested, and the IC50 (lysine gingipain (Kgp) [2]; Table 3) was 1.3 nM, the IC50 (lysine gingipain (Kgp) [2]; Table 4) was 1.3 nM and the IC50 (Cathepsin S; Table 3) was 24100 nM. The IC50 (Cathepsin S; Table 4) was over 10000 nM, the IC50 (Cathepsin K; Table 3) was 20200 nM and the IC50 (Cathepsin K; Table 4) was over 10000 nM. The IC50 (Cathepsin B; Table 3) was 49600 nM, the IC50 (Cathepsin B; Table 4) was over 10000 nM and the IC50 (Cathepsin L; Table 3) was 5530 nM. It also gave an IC50 (Cathepsin L; Table 4) of over 10000 nM.

NCCCCC(NC(=O)C1CCCC1)C(=O)COc1cc(F)cc(F)c1 (stereo not shown) [Compound 8a] was tested, and the IC50 (lysine gingipain (Kgp) [2]; Table 3) was 0.34 nM, the IC50 (Cathepsin S; Table 3) was over 100000 nM and the IC50 (Cathepsin K; Table 3) was over 100000 nM. The IC50 (Cathepsin B; Table 3) was 68300 nM and the IC50 (Cathepsin L; Table 3) was over 100000 nM.

[N-]=[N+]=Nc1cccc(C(=O)NC(CCCCN)C(=O)COc2c(F)cccc2F)c1 (stereo not shown) [Compound 12a] showed an IC50 (lysine gingipain (Kgp) [2]; Table 3) of 0.08 nM.

Work on CSCC(=O)C(CCCCN)NC(=O)C1CCCC1 (stereo not shown) [Compound 16a] yielded an IC50 (lysine gingipain (Kgp) [2]; Table 3) of over 100 nM.

NCCCCC(NC(=O)C1CCCC1)C(=O)COCC(F)(F)F (stereo not shown) [Compound 17a] gave an IC50 (lysine gingipain (Kgp) [2]; Table 3) of over 100 nM.

In the case of NCCCC[C@H](NC(=O)C1CCCC1)C(=O)COC(C(F)(F)F)C(F)(F)F [Compound 18, (S)—N-(7-amino-1-((1,1,1,3,3,3-hexafluoropropan-2-yl)oxy)-2-oxoheptan-3-yl)cyclopentanecarboxamide], the “selectivity for Kgp” value (lysine gingipain (Kgp) [1]) was “far more selective”.

Work on CN(C)CC(=O)C(CCCCN)NC(=O)C1CCCC1 (stereo not shown) [Compound 19a] yielded an IC50 (lysine gingipain (Kgp) [2]; Table 3) of over 100 nM.

With CS(=O)(=O)CC(=O)C(CCCCN)NC(=O)C1CCCC1 (stereo not shown) [Compound 20a] the IC50 (lysine gingipain (Kgp) [2]; Table 3) was over 100 nM.

NCCCCC(NC(=O)c1cccc(F)c1)C(=O)COc1c(F)cccc1F (stereo not shown) [Compound 26a] was tested, and the IC50 (lysine gingipain (Kgp) [2]; Table 4) was 0.09 nM.

NCCCCC(NC(=O)c1cccc(OCCF)c1)C(=O)COc1c(F)cccc1F (stereo not shown) [Compound 27a] showed an IC50 (lysine gingipain (Kgp) [2]; Table 4) of 0.27 nM.

With NCCCCC(NC(=O)c1cccc(F)n1)C(=O)COc1c(F)cccc1F (stereo not shown) [Compound 28a] the IC50 (lysine gingipain (Kgp) [2]; Table 4) was 0.34 nM.

NCCCCC(NC(=O)c1ccc(F)nc1)C(=O)COc1c(F)cccc1F (stereo not shown) [Compound 29a] gave an IC50 (lysine gingipain (Kgp) [2]; Table 4) of 0.31 nM.

With NCCCCC(NC(=O)c1cccc(OCCCF)c1)C(=O)COc1c(F)cccc1F (stereo not shown) [Compound 30a] the IC50 (lysine gingipain (Kgp) [2]; Table 4) was 0.21 nM.

In the case of NCCCCC(NC(=O)c1ccnc(F)c1)C(=O)COc1c(F)cccc1F (stereo not shown) [Compound 31a], the IC50 (lysine gingipain (Kgp) [2]; Table 4) was 0.15 nM.

Work on NCCCCC(NC(=O)c1cccnc1F)C(=O)COc1c(F)cccc1F (stereo not shown) [Compound 32a] yielded an IC50 (lysine gingipain (Kgp) [2]; Table 4) of 0.08 nM.

[N-]=[N+]=Nc1cccc(C(=O)NC(CCCCN)C(=O)COc2c(F)cccc2F)c1 (stereo not shown) [Compound 33a] was tested, and the IC50 (lysine gingipain (Kgp) [2]; Table 4) was 0.08 nM.
